Measured values taken from PubChem BioAssay AID248 (DTP/NCI, 2004).
“And” between values parts separate entries of the source, which are not always exact repeats. Equal values may be shown once. Toxic doses and inconclusive results are not listed. No stated cut-off is given here; in the data, active means T/C of 150% or more; inactive means T/C below 125%.

System: L1210 leukemia ip in BDF1 mice, survival T/C
Assay: NCI In Vivo Anticancer Drug Screen. Data for tumor model L1210 Leukemia (intraperitoneal) in B6D2F1 (BDF1) mice
Settings: endpoint: mean survival time, higher = longer survival
Summary of the method: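 Transplantable tumor model; survival measured in treated vs vehicle control mice. Value = treated/control.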

[1] = dose: 100.0 mg/kg/injection, schedule: Q04DX003 (ip), vehicle: saline
[2] = dose: 100.0 mg/kg/injection, schedule: Q04DX003 (ip), vehicle: saline with Tween-80
[3] = dose: 200.0 mg/kg/injection, schedule: Q04DX003 (ip), vehicle: saline with Tween-80
[4] = dose: 400.0 mg/kg/injection, schedule: Q04DX003 (ip), vehicle: saline with Tween-80
[5] = dose: 100.0 mg/kg/injection, schedule: Q01DX009 (ip), vehicle: Klucel (hydroxypropylcellulose) (HPC)
[6] = dose: 200.0 mg/kg/injection, schedule: Q01DX009 (ip), vehicle: Klucel (hydroxypropylcellulose) (HPC)
[7] = dose: 400.0 mg/kg/injection, schedule: Q01DX009 (ip), vehicle: Klucel (hydroxypropylcellulose) (HPC)
[8] = dose: 100.0 mg/kg/injection, schedule: Q04DX003 (ip), vehicle: Klucel (hydroxypropylcellulose) (HPC)
[9] = dose: 200.0 mg/kg/injection, schedule: Q04DX003 (ip), vehicle: Klucel (hydroxypropylcellulose) (HPC)
[10] = dose: 400.0 mg/kg/injection, schedule: Q04DX003 (ip), vehicle: Klucel (hydroxypropylcellulose) (HPC)
[11] = dose: 100.0 mg/kg/injection, schedule: Q04DX002 (ip), vehicle: saline with Tween-80
[12] = dose: 400.0 mg/kg/injection, schedule: Q04DX002 (ip), vehicle: saline with Tween-80
[13] = dose: 100.0 mg/kg/injection, schedule: Q01DX001 (ip), vehicle: saline
[14] = dose: 200.0 mg/kg/injection, schedule: Q01DX001 (ip), vehicle: saline
[15] = dose: 400.0 mg/kg/injection, schedule: Q01DX001 (ip), vehicle: saline
[16] = dose: 6.25 mg/kg/injection, schedule: Q04DX003 (ip), vehicle: saline
[17] = dose: 12.5 mg/kg/injection, schedule: Q04DX003 (ip), vehicle: saline
[18] = dose: 100.0 mg/kg/injection, schedule: Q01DX001 (ip), vehicle: Klucel (hydroxypropylcellulose) (HPC)
[19] = dose: 200.0 mg/kg/injection, schedule: Q01DX001 (ip), vehicle: Klucel (hydroxypropylcellulose) (HPC)

Measured: T/C

Cc1ccccc1N=Nc1c(O)n(-c2ccc(Br)cc2)c(=S)n(-c2ccccc2)c1=O
inactive: dose: 37.5 mg/kg/injection, schedule: Q01DX001 (ip), vehicle: Klucel (hydroxypropylcellulose) (HPC) 101 % of control | dose: 75.0 mg/kg/injection, schedule: Q01DX001 (ip), vehicle: Klucel (hydroxypropylcellulose) (HPC) 101 % of control | dose: 150.0 mg/kg/injection, schedule: Q01DX001 (ip), vehicle: Klucel (hydroxypropylcellulose) (HPC) 101 % of control

OC(CCCNc1ccccc1)CCCNc1ccccc1
inactive: dose: 75.0 mg/kg/injection, schedule: Q01DX001 (ip), vehicle: saline 96 % of control | dose: 150.0 mg/kg/injection, schedule: Q01DX001 (ip), vehicle: saline 91 % of control

CC(=O)OC1CCC2(C)C(CCC3(C)C2CC=C2C4=C(CCC(C)(C)C4=O)CCC23C)C1(C)C (stereo not given)
inactive: [1] 102 % of control | dose: 200.0 mg/kg/injection, schedule: Q04DX003 (ip), vehicle: saline 100 % of control | dose: 400.0 mg/kg/injection, schedule: Q04DX003 (ip), vehicle: saline 92 % of control

CCOC(=O)CC(C)NC1CCCCC1 (stereo not given)
inactive: dose: 100.0 mg/kg/injection, schedule: Q01DX Z (ip), vehicle: methylcellulose (MC) 92 % of control | dose: 200.0 mg/kg/injection, schedule: Q01DX Z (ip), vehicle: methylcellulose (MC) 92 % of control

CC1CCCC(CN=Cc2cc(Cl)ccc2O)[N-]1.CC1CCCC(CN=Cc2cc(Cl)ccc2O)[N-]1.[Ni+2] (stereo not given)
inactive: [2] 96 % of control | [3] 90 % of control | [4] 91 % of control

Cc1cccc(CSc2nc(N)nc3ncn(C4CC(O)C(CO)O4)c23)n1 (stereo not given)
inactive: dose: 100.0 mg/kg/injection, schedule: Q01DX005 (ip), vehicle: saline 101 % of control | dose: 200.0 mg/kg/injection, schedule: Q01DX005 (ip), vehicle: saline 103 % of control

O=C(Cc1ccccc1)Nc1cccc(C(F)(F)F)c1
inactive: [5] 91 % of control | [6] 95 % of control | [7] 98 % of control

Cc1ccc2nc3c4ccccc4c4ccccc4c3nc2c1
inactive: [5] 101 % of control | [8] 105 % of control | [6] 102 % of control | [9] 105 % of control | [7] 101 % of control | [10] 98 % of control

COc1ccc([N+](=O)[O-])cc1NS(=O)(=O)c1c(C)cc(C)cc1C
inactive: dose: 50.0 mg/kg/injection, schedule: Q01DX009 (ip), vehicle: saline with Tween-80 94 % of control and 88 % of control | dose: 100.0 mg/kg/injection, schedule: Q01DX001 (ip), vehicle: saline with Tween-80 92 % of control | dose: 100.0 mg/kg/injection, schedule: Q01DX009 (ip), vehicle: saline with Tween-80 94 % of control and 97 % of control | [11] 107 % of control | [2] 98 % of control | dose: 200.0 mg/kg/injection, schedule: Q01DX001 (ip), vehicle: saline with Tween-80 104 % of control | dose: 200.0 mg/kg/injection, schedule: Q01DX009 (ip), vehicle: saline with Tween-80 97 % of control and 103 % of control | dose: 200.0 mg/kg/injection, schedule: Q04DX002 (ip), vehicle: saline with Tween-80 103 % of control | [3] 97 % of control | dose: 400.0 mg/kg/injection, schedule: Q01DX001 (ip), vehicle: saline with Tween-80 92 % of control | dose: 400.0 mg/kg/injection, schedule: Q01DX009 (ip), vehicle: saline with Tween-80 97 % of control | [12] 103 % of control | [4] 93 % of control

Cc1cn(C2CCCO2)c(=O)[nH]c1=O (stereo not given)
inactive: [13] 106 % of control | [14] 101 % of control | [15] 95 % of control

O=C(N/N=C/c1ccccc1Cl)c1cccc2ccccc12
inactive: [13] 92 % of control | [14] 101 % of control | [15] 103 % of control

Cn1ncc2c(N)ncnc21
inactive: dose: 6.0 mg/kg/injection, schedule: Q01DX015 (ip), vehicle: carboxymethylcellulose (CMC) 108 % of control | dose: 12.0 mg/kg/injection, schedule: Q01DX015 (ip), vehicle: carboxymethylcellulose (CMC) 101 % of control | dose: 12.5 mg/kg/injection, schedule: Q01DX009 (ip), vehicle: Klucel (hydroxypropylcellulose) (HPC) 102 % of control | dose: 25.0 mg/kg/injection, schedule: Q01DX009 (ip), vehicle: Klucel (hydroxypropylcellulose) (HPC) 107 % of control | dose: 25.0 mg/kg/injection, schedule: Q01DX015 (ip), vehicle: carboxymethylcellulose (CMC) 108 % of control | dose: 50.0 mg/kg/injection, schedule: Q01DX009 (ip), vehicle: Klucel (hydroxypropylcellulose) (HPC) 91 % of control | dose: 50.0 mg/kg/injection, schedule: Q01DX015 (ip), vehicle: carboxymethylcellulose (CMC) 101 % of control | dose: 100.0 mg/kg/injection, schedule: Q01DX001 (ip), vehicle: carboxymethylcellulose (CMC) 103 % of control | dose: 200.0 mg/kg/injection, schedule: Q01DX001 (ip), vehicle: carboxymethylcellulose (CMC) 98 % of control | dose: 400.0 mg/kg/injection, schedule: Q01DX001 (ip), vehicle: carboxymethylcellulose (CMC) 106 % of control

CC(C)(C)C#C/C(=N\Nc1ccc([N+](=O)[O-])cc1[N+](=O)[O-])c1ccccc1
inactive: dose: 50.0 mg/kg/injection, schedule: Q04DX002 (ip), vehicle: saline with Tween-80 89 % of control | [11] 96 % of control | [12] 86 % of control

C=CCN(CC=C)CCN1CCN(CCCN2c3ccccc3Sc3ccc(C(F)(F)F)cc32)CC1
inactive: dose: 6.25 mg/kg/injection, schedule: Q01DX009 (ip), vehicle: saline 98 % of control | [16] 109 % of control | dose: 12.5 mg/kg/injection, schedule: Q01DX009 (ip), vehicle: saline 100 % of control | [17] 91 % of control | dose: 25.0 mg/kg/injection, schedule: Q01DX009 (ip), vehicle: saline 94 % of control | dose: 25.0 mg/kg/injection, schedule: Q04DX003 (ip), vehicle: saline 112 % of control | dose: 50.0 mg/kg/injection, schedule: Q04DX003 (ip), vehicle: saline 97 % of control | dose: 56.25 mg/kg/injection, schedule: Q01DX001 (ip), vehicle: saline 102 % of control | [1] 119 % of control | dose: 112.5 mg/kg/injection, schedule: Q01DX001 (ip), vehicle: saline 114 % of control

Cc1ccc(-n2c(=O)c(N=Nc3ccccc3C)c(O)n(-c3ccccc3Cl)c2=S)cc1
inactive: dose: 50.0 mg/kg/injection, schedule: Q01DX001 (ip), vehicle: Klucel (hydroxypropylcellulose) (HPC) 104 % of control | [18] 94 % of control | [19] 98 % of control

O=C1c2ccccc2C(=O)N1CNc1cccc(NCN2C(=O)c3ccccc3C2=O)c1
inactive: [2] 91 % of control | [3] 97 % of control | [4] 102 % of control

CCOC(=O)C(CCC(c1ccc(OC)cc1)c1ccc(OC)cc1)C(=O)OCC
inactive: [13] 98 % of control | [14] 93 % of control | [15] 94 % of control

O=C1C=CC(=Nc2ccc3c(c2)C(Br)c2ccccc2-3)O1 (stereo not given)
inactive: dose: 3.12 mg/kg/injection, schedule: Q04DX003 (ip), vehicle: saline 100 % of control | dose: 4.5 mg/kg/injection, schedule: Q01DX009 (ip), vehicle: saline 102 % of control | [16] 105 % of control | dose: 9.0 mg/kg/injection, schedule: Q01DX009 (ip), vehicle: saline 95 % of control | dose: 12.5 mg/kg/injection, schedule: Q01DX001 (ip), vehicle: acetone 100 % of control | [17] 103 % of control | dose: 18.0 mg/kg/injection, schedule: Q04DX003 (ip), vehicle: saline 98 % of control

CCOC(=O)C12CCC=C1N(S(=O)(=O)N(C)C)c1ccc(NS(=O)(=O)N(C)C)cc12 (stereo not given)
inactive: dose: 45.0 mg/kg/injection, schedule: Q04DX003 (ip), vehicle: Klucel (hydroxypropylcellulose) (HPC) 105 % of control | dose: 65.0 mg/kg/injection, schedule: Q04DX003 (ip), vehicle: Klucel (hydroxypropylcellulose) (HPC) 105 % of control | [18] 97 % of control | [8] 105 % of control and 120 % of control | [19] 104 % of control | [9] 89 % of control | dose: 400.0 mg/kg/injection, schedule: Q01DX001 (ip), vehicle: Klucel (hydroxypropylcellulose) (HPC) 98 % of control | [10] 97 % of control
